Test [1] has as its system carbapenem-resistant Escherichia coli (ATCC BA-2452, NDM-1 positive). The experiment in a line: Inactivation of carbapenem-resistant E. coli by 300 ns electric pulses and/or antibiotics (CFU plating). The format is cell-based. Conditions: 30 kV/cm NSEPs + 20 μg/mL. From the text: Except for rifampicin, the five other antibiotics in these examples primarily target gram-positive bacteria and are largely ineffective or not used against gram-negative bacteria in a clinical setting.
A Blumlein pulsed generator consisting of two lines comprised of twelve 2000 pF capacitors connected by inductors produced 300 ns EPs with rise-times of 30 ns and fall-times of 35 ns at a repetition frequency of 1 Hz (12). The EPs were applied to a standard 2 mm gap electroporation cuvette (Dot Scientific R) filled with a solution containing the microorganisms. Used was a Luria broth of 0.5% salinity (5 grams of NaCl/Liter) for the solution to electrically match the resistance of the sample with the impedance of the pulse generator (11Ω) to prevent signal reflection. The voltage measurements were taken using a LeCroy PPE 20 kV high voltage probe with a 1000:1 attenuation recorded by a TeleDyne LeCroy® Waverunner 6 Zi Oscilloscope with a bandwidth of 4 GHZ.
The gram-negative strains included a carbapenem-resistant Escherichia coli (ATCC® BA-2452TM, New Delhi metallo-beta-lactamase NDM-1 positive.), Klebsiella pneumoniae (ATCC® BAA-2146TM NDM-I positive), and a gentamicin, streptomycin and sulfonamide resistant Pseudomonas aeruginosa (BEI Resources NR-31040). Assessed was the gram-positive strain of methicillin resistant Staphylococcus aureus (USA300-0114 strain), which is also resistant to erythromycin and tetracycline. Samples were cultured in Luria broth (LB Broth Lennox, powder microbial growth medium, SIGMA-ALDRICH®) by taking 25 mL of broth in a 50 mL sterile conical tube and incubating in a shaker for 16 h at 37° C. Samples were diluted 50% by adding 25 mL media to the incubated sample as we plated controls for each experiment and condition.
Samples were treated in 2 mm gap cuvettes containing 365 μL of sample between the electrodes, with bio-grade mineral oil added on top of the electrode plates to prevent arcing.
To establish a common baseline for comparing different NSEP parameters, we fixed the energy density U delivered to the cuvettes according to Formula (1) (above). For 300 ns EPs, 500 EPs at 20 kV/cm and 222 EPs at 30 kV/cm delivered the same energy to the sample.
Tissue culture Petri dishes from VWR R (15 cm diameter, 10 mm height) were utilized for plating. Each plate was covered with 15 mL of Luria broth (Agar, microbiology tested powder, SIGMA-ALDRICH®), which was prepared by adding 20 g of LB Lennox (SIGMA-ALDRICH) and 15 g/L of agar to water prior to being autoclaved. The salinity of the agar was the same as the LB (0.5% NaCl) to minimize additional environmental stressors on the bacteria.
Removed was 20 μL from each cuvette and added to 180 μL of PBS in a 96-well dish in triplicate. Each well was then diluted by a ratio of 10:1 five additional times by taking 20 μL of the diluted sample into subsequent wells using multi-channel pipettes (using fresh tips for each dilution). Plated were the six dilutions of each sample two times each by adding 4 μL from each well onto the Petri dish using a multi-channel pipette, which allowed the plating of all three replicates on the same plate to achieve n=6. These plates were then cultured overnight in an incubator at 37° C., and counted the next day.

The subject of test [2] is Esherichia coli (gram negative bacterium number 25922). Kind of test: Inactivation of E. coli by 300 ns electric pulses combined with antibiotic (CFU plating). The format is cell-based, Escherichia coli. The procedure: Equipment. Used was a capacitor based Blumlein pulse generator with a spark gap switch to produce trapezoidal EPs of 300 ns duration at the peak with rise and fall times close to 50 ns. Multiple pulses were delivered at a frequency of 1 Hz.
The samples were treated in a standard electroporation cuvette (Dot Scientific) whose resistance must match the pulse generator's impedance to prevent pulse reflection. […] Used were 2 mm cuvettes to ensure consistency between tests, and the applied voltage was measured across the cuvette using a LeCroy PPE 20 kV high voltage probe with a 1000:1 attenuation feeding into a TeleDyne LeCroy Waverunner 6 Zi Oscilloscope capable of measuring signals up to 4 GHz. Assuming a purely parallel plate geometry with minimal fringing gives an electric field E=V/d, where V is the peak voltage of the applied pulse and d is the gap distance.
Sample Preparation. These experiments assessed Stapphylococcus aureus (gram positive bacterium number 25923) from ATCC and Esherichia coli (gram negative bacterium number 25922) inoculated in luria broth (LB Broth Lennox, powder microbial growth medium. SIGMA-ALDRICH) by taking 8 mL of broth in a 50 mL sterile conical tube and incubating in a shaker for 20 h at 37° C. The sample was then diluted with fresh Luria broth until attaining an optical density of 0.25 for 100 μL on a photospectrometer (Molecular Devices) for a wavelength of 562 nm as measured in a 96-well plate. The optical density, which varies with growth or tube volume, was determined experimentally and set between 1×10^8 and 1.5×10^8 colony forming units (CFUs)/mL for the samples to be pulsed. These samples were then plated at dilutions between 10-6 and 100 (no dilution) depending on the effectiveness of the pulse treatments.
Electric Pulse Treatment Protocol. […] Although no consensus exists on a universal scaling law for applied EP “dose,” we fixed the energy density
[formula] • where N is the number of pulses and τ is the pulse duration. Fixing U for E=40, 30, and 20 kV/cm gave N=250, 445, and 1000 pulses, respectively. Cultures were plated as described below.
Cuvettes were filled with 365 μL of sample (sufficient to just cover the electrodes) and then 250 μL of molecular biology grade mineral oil was placed on top.
Added were 0.2, 2, and 20 μg/mL of each drug to the initial bacterial dilutions prior to pulsing. Samples were immediately placed on ice to minimize cell division and reduce variability. These aliquots were also used to plate individual unpulsed controls for each drug concentration.
Plating. Plating was done on standard disposable tissue culture Petri dishes from VWR (15 cm diameter, 10 mm height) and covered with 10 mL of agar in luria broth (Agar, microbiology tested powder, SIGMA-ALDRICH), which was prepared by adding 20 g of LB lennox (SIGMA-ALDRICH) and 15 g/L of agar to water and then autoclaved.
Plated were samples at dilutions of 10^−6 and 10^−3 for low and high electric field treatments, respectively, and at 10^−6 and 10^−5 for controls All samples containing 100 μL of pulsed or diluted cultures were plated on LB agar plates and counted after overnight incubation at 37° C.
Pulsing with drugs: bacterial samples of both gram-positive S. aureus and gram-negative E. coli strains were pulsed in a solution with 0.2, 2, and 20 μg/mL of tobramycin and compared to an un-pulsed drug-exposed control. Pulsing and plating were performed to ensure that the drug exposure time of the bacteria was approximately fifteen minutes.

In the case of `CO[C@H]1/C=C/O[C@@]2(C)Oc3c(C)c(O)c4c(O)c(c(/C=N/N5CCN(C)CC5)c(O)c4c3C2=O)NC(=O)/C(C)=C\C=C\[C@H](C)[C@H](O)[C@@H](C)[C@@H](O)[C@@H](C)[C@H](OC(C)=O)[C@@H]1C` [rifampicin], the “log reduction of E. coli” value in test [1] is 6 log; in test [2] (20 μg/mL + 445 pulses of 30 kV/cm, consistent with complete sterilization), more than 9 log. Besides, the “synergy (additional kill off) compared to just the drug, E. coli” value in test [2] (20 μg/mL, EPs vs no EPs) was found to be 4 log. For the same compound, the “additional log-reduction of E. coli compared to pulsing alone” value in test [2] (EPs + 2 and 20 μg/mL) was determined as 1.5 log.

For the origin of these results see patent US20250195660A1, “INACTIVATING BACTERIA WITH ELECTRIC PULSES AND ANTIBIOTICS” (Purdue Research Foundation, priority 2018, published 2025).
